In ChEMBL document CHEMBL6096628, “Discovery of a Highly Potent and Selective BRD9 PROTAC Degrader Based on E3 Binder Investigation for the Treatment of Hematological Tumors” (J Med Chem, 2024):
The source made the active and inactive calls. The calls are words filed in the database; no cut-off is given here.

How the values were obtained:
[1] = tested on: MV4-11; assay: Upregulation of C-myc mRNA expression level in human MV4-11 cells at 0.1 to 10 nM measured after 24 to 48 hrs by qPCR analysis; format: functional, cell-based; settings: dose 0.1-10 nM, time 24-48 hrs
[2] = tested on: MV4-11; assay: Induction of apoptosis in human MV4-11 cells assessed as necrotic cells at 1 nM incubated for 48 hrs by Annexin V-FITC/PI staining based flow cytometric analysis (reference value: 0.07 %); format: functional
[3] = tested on: MV4-11; assay: Antitumor activity against human MV4-11 cells xenografted in Balb/c nude mouse assessed as tumor growth inhibition at 20 mg/kg, ip administered once daily for 20 days relative to control; format: functional; settings: MV4-11, 480 h, time 20 day, read-out: TGI
[4] = tested on: MV4-11; assay: Induction of apoptosis in human MV4-11 cells assessed as viable cells at 0.1 nM incubated for 48 hrs by Annexin V-FITC/PI staining based flow cytometric analysis (reference value: 94.80 %); format: functional; settings: read-out: Activity
[5] = tested on: MV4-11; assay: Downregulation of beta-catenin expression level in human MV4-11 cells at 0.1 to 10 nM measured after 24 to 48 hrs by Western blot analysis; format: functional, cell-based; settings: dose 0.1-10 nM, time 24-48 hrs
[6] = Cmax in ICR mouse at 20 mg/kg, IG administered via gavage and measured after 24 hrs by LC-MS analysis; format: ADME, organism-based; settings: in vivo, po
[7] = tested on: MV4-11; assay: Induction of apoptosis in human MV4-11 cells assessed as necrotic cells at 10 nM incubated for 48 hrs by Annexin V-FITC/PI staining based flow cytometric analysis (reference value: 0.07 %); format: functional
[8] = target: T1, Protein cereblon/Bromodomain-containing protein 9 (Homo sapiens, UniProt Q9H8M2+Q96SW2); assay: PROTAC activity at CRBN/BRD9 in human MV4-11 cells assessed as induction of BRD9 degradation at 100 nM by Western blot analysis relative to control; format: cell-based
Target sequence in this assay (Q96SW2 whole entry, looked up): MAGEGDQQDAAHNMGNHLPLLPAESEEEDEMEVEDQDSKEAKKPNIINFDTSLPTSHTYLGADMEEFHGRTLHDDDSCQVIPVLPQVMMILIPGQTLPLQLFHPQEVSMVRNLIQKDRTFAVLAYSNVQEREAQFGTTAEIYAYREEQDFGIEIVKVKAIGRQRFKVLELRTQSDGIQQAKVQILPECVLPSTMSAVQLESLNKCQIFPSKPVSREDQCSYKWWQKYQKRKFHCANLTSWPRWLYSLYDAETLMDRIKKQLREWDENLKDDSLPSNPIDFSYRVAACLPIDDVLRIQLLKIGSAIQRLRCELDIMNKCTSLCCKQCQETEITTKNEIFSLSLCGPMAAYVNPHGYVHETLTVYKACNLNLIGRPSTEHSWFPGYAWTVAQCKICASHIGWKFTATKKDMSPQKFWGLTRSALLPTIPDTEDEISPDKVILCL
Target sequence in this assay (Q9H8M2 whole entry, looked up): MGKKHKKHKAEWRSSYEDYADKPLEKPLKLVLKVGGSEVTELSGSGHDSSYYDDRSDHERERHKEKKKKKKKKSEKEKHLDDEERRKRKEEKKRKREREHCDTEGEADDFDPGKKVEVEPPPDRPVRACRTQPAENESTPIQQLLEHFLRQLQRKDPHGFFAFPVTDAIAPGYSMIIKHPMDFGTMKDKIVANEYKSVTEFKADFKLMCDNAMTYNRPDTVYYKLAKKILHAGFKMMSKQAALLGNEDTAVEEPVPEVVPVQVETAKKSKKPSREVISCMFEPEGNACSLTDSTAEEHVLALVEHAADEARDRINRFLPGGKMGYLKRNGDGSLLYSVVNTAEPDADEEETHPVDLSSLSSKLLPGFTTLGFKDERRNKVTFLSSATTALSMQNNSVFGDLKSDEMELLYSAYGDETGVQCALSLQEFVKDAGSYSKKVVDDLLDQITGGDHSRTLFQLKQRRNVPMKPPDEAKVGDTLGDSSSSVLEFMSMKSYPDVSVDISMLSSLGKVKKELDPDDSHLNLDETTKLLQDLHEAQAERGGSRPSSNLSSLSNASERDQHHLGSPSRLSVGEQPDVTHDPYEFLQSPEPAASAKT

[9] = tested on: MV4-11; assay: Induction of apoptosis in human MV4-11 cells assessed as viable cells at 1 nM incubated for 48 hrs by Annexin V-FITC/PI staining based flow cytometric analysis (reference value: 94.80 %); format: functional; settings: read-out: Activity
[10] = target: T1, Protein cereblon/Bromodomain-containing protein 9; assay: PROTAC activity at CRBN/BRD9 in human MV4-11 cells assessed as induction of BRD9 degradation at 0.33 nM in presence of MLN4924 by Western blot analysis; format: cell-based
Target sequence in this assay (Q96SW2 whole entry, looked up): as the sequence (Q96SW2 whole entry, looked up) above
Target sequence in this assay (Q9H8M2 whole entry, looked up): as the sequence (Q9H8M2 whole entry, looked up) above

[11] = target: T1, Protein cereblon/Bromodomain-containing protein 9; assay: PROTAC activity at CRBN/BRD9 in human MV4-11 cells assessed as induction of BRD9 degradation at 0.33 nM in presence of pomalidomide by Western blot analysis; format: cell-based
Target sequence in this assay (Q96SW2 whole entry, looked up): as the sequence (Q96SW2 whole entry, looked up) above
Target sequence in this assay (Q9H8M2 whole entry, looked up): as the sequence (Q9H8M2 whole entry, looked up) above

[12] = tested on: MV4-11; assay: Induction of GSPT1 degradation in human MV4-11 cells at 0.1 to 100 nM by Western blotting analysis; format: cell-based; settings: dose 0.1-100 nM
[13] = Toxicity in Balb/c nude mouse xenografted with human OCI-Ly10 cells assessed as effect on body weight at 30 mg/kg, po administered once daily for 18 days; format: organism-based; settings: in vivo, 432 h, time 18 day
[14] = target: T1, Protein cereblon/Bromodomain-containing protein 9; assay: PROTAC activity at CRBN/BRD9 in human MV4-11 cells assessed as induction of BRD9 degradation at 0.33 nM in presence of N-(1,1-dioxidotetrahydro-2H-thiopyran-4-yl)-5-ethyl-4-oxo-7-(3-(trifluoromethyl)phenyl)-4,5-dihydrothieno[3,2-c]pyridine-2-carboximidamide by Western blot analysis; format: cell-based
Target sequence in this assay (Q96SW2 whole entry, looked up): as the sequence (Q96SW2 whole entry, looked up) above
Target sequence in this assay (Q9H8M2 whole entry, looked up): as the sequence (Q9H8M2 whole entry, looked up) above

[15] = tested on: MOLM-13; assay: Antiproliferative activity against human MOLM-13 cells assessed as inhibition of cell growth incubated for 7 days by MTS reagent based assay; format: functional; settings: MOLM-13, 168 h
[16] = target: T1, Protein cereblon/Bromodomain-containing protein 9; assay: In vivo PROTAC activity at CRBN/BRD9 in Balb/c nude mouse xenografted with human MV4-11 cells assessed as induction of BRD9 degradation in tumor at 20 mg/kg, ip administered once daily for 20 days by Western blot analysis; format: functional, organism-based; settings: time 20.0 day
Target sequence in this assay (Q96SW2 whole entry, looked up): as the sequence (Q96SW2 whole entry, looked up) above
Target sequence in this assay (Q9H8M2 whole entry, looked up): as the sequence (Q9H8M2 whole entry, looked up) above

[17] = tested on: MV4-11; assay: Induction of apoptosis in human MV4-11 cells assessed as early apoptotic cells at 1 nM incubated for 48 hrs by Annexin V-FITC/PI staining based flow cytometric analysis (reference value: 4.22 %); format: functional
[18] = target: T1, Protein cereblon/Bromodomain-containing protein 9; assay: PROTAC activity at CRBN/BRD9 in human MV4-11 cells assessed as induction of BRD9 degradation by Western blot analysis; format: cell-based
[19] = tested on: MV4-11; assay: Induction of BRD4 degradation in human MV4-11 cells at 100 nM by Western blot analysis; format: cell-based
[20] = tested on: MV4-11; assay: Induction of apoptosis in human MV4-11 cells assessed as viable cells at 0.01 nM incubated for 48 hrs by Annexin V-FITC/PI staining based flow cytometric analysis (reference value: 94.80 %); format: functional; settings: read-out: Activity
[21] = target: T1, Protein cereblon/Bromodomain-containing protein 9; assay: PROTAC activity at CRBN/BRD9 in human MV4-11 cells assessed as induction of BRD9 degradation at 0.33 nM in presence of MG132 by Western blot analysis; format: cell-based
Target sequence in this assay (Q96SW2 whole entry, looked up): as the sequence (Q96SW2 whole entry, looked up) above
Target sequence in this assay (Q9H8M2 whole entry, looked up): as the sequence (Q9H8M2 whole entry, looked up) above

[22] = tested on: MV4-11; assay: Antitumor activity against human MV4-11 cells xenografted in Balb/c nude mouse assessed as tumor weight at 20 mg/kg, ip administered once daily for 20 days (reference value: 1.30 +/- 0.51 g); format: functional; settings: time 20 day
[23] = tested on: MV4-11; assay: Downregulation of AXIN2 expression level in human MV4-11 cells at 0.1 to 10 nM measured after 24 to 48 hrs by Western blot analysis; format: functional, cell-based; settings: dose 0.1-10 nM, time 24-48 hrs
[24] = Toxicity in Balb/c nude mouse xenografted with human OCI-Ly10 cells assessed as mortality at 30 mg/kg, po administered once daily for 18 days; format: organism-based; settings: in vivo, 432 h, time 18 day
[25] = target: T1, Protein cereblon/Bromodomain-containing protein 9; assay: PROTAC activity at CRBN/BRD9 in human MV4-11 cells assessed as induction of BRD9 degradation at 0.33 nM measured within 2 hrs by Western blot analysis; format: cell-based
[26] = tested on: MV4-11; assay: Induction of apoptosis in human MV4-11 cells assessed as late apoptotic cells at 10 nM incubated for 48 hrs by Annexin V-FITC/PI staining based flow cytometric analysis (reference value: 0.91 %); format: functional
[27] = tested on: MV4-11; assay: Antiproliferative activity against CRBN knockout human MV4-11 cells assessed as inhibition of cell growth incubated for 7 days by MTS reagent based assay; format: functional; settings: MV4-11, 168 h
[28] = tested on: MV4-11; assay: Induction of apoptosis in human MV4-11 cells assessed as early apoptotic cells at 10 nM incubated for 48 hrs by Annexin V-FITC/PI staining based flow cytometric analysis (reference value: 4.22 %); format: functional
[29] = tested on: SU-DHL-6; assay: Antiproliferative activity against human SU-DHL-6 cells assessed as inhibition of cell growth incubated for 7 days by MTS reagent based assay; format: functional; settings: SU-DHL-6, 168 h
[30] = tested on: MV4-11; assay: Downregulation of CHEK2 protein expression in human MV4-11 cells by proteomic analysis; format: functional, cell-based
[31] = tested on: Kasumi 1; assay: Antiproliferative activity against human Kasumi 1 cells assessed as inhibition of cell growth incubated for 7 days by MTS reagent based assay; format: functional; settings: Kasumi 1, 168 h
[32] = target: T1, Protein cereblon/Bromodomain-containing protein 9; assay: PROTAC activity at CRBN/BRD9 in human MV4-11 cells assessed as induction of BRD9 degradation at 10 nM by Western blot analysis relative to control; format: cell-based
[33] = tested on: MV4-11; assay: Downregulation of TTK protein expression in human MV4-11 cells by proteomic analysis; format: functional, cell-based
[34] = tested on: MV4-11; assay: Induction of apoptosis in human MV4-11 cells assessed as early apoptotic cells at 0.01 nM incubated for 48 hrs by Annexin V-FITC/PI staining based flow cytometric analysis (reference value: 4.22 %); format: functional

In the case of COc1cc(-c2cn(C)c(=O)c3ccccc23)cc(OC)c1CN1CCC(CN2CCC(c3ccc4c5c(cccc35)C(=O)N4C3CCC(=O)NC3=O)CC2)CC1 (stereo not given), the Activity [1] is reported as “Active”, the Activity [2] is reported as 0.06% and the inhibition in vivo at 20 mg/kg [3] is reported as 30.9%. The viability at 0.0001 µM [4] was 87.4%, the Activity [5] was “Active” and the Cmax [6] was 127 ng/mL. The Activity [7] was 0.21%, the Activity [8] was 95% and the viability at 0.001 µM [9] was 80.4%. The Activity [10] was “Not active; Compound Functioned Through Ubiquitin-Proteasome System”, the Activity [11] was “inactive” and the Activity [12] was “inactive”. For the same compound, the Activity [13] was “Non-toxic”, the Activity [14] was “inactive” and the IC50 [15] was 0.37 nM. For the same compound, the Activity [16] was “Active”, the Activity [17] was 13.79% and the Activity [18] was “Dose-dependent-effect”. The DC50 [18] was 0.016 nM, the Activity [19] was “inactive” and the viability at 10 pM [20] was 92%. The Activity [21] was “Not active; Compound Functioned Through Ubiquitin-Proteasome System”, the Activity [22] was 0.9 g and the Activity [23] was “Active”. The Activity [24] was “Non-toxic”, the Activity [25] was “Active” and the Activity [26] was 8.01%. The IC50 [27] was > 5 µM, the Activity [28] was 16.97% and the IC50 [29] was 375 nM. For the same compound, the Activity [30] was “Active”, the IC50 [31] was 1.13 nM and the Activity [32] was 98.5%. For the same compound, the Activity [33] was “Active” and the Activity [34] was 6.35%.
